In paper doi:10.1101/187716v3 (bioRxiv, 2017):

System: orthotopic 4T1 breast tumors
Assay: PET-CT imaging of tumor accumulation in orthotopic 4T1 breast tumor mice
Format: in vivo, Balb/c mice
Conditions: scans at 10 min, 2, 6, 12, 24, 48 h

Cys-Tyr-Ahx-LinTT1 [LinTT1-Tyr-^124I-PS]
time post injection at which tumor accumulation is seen by PET: 2 h
